Values joined by “and” are separate entries in the source; they are usually repeats but may differ in a detail not shown here. Identical values can stand only once. “Also recorded” adds a separate entry of the source.
How the values were obtained:
[1] = system: elevated heart rate; assay: In vivo dog experiments: heart rate offset after iontophoretic ESA drug with pretreatment (Example A); design: species or system labrador dogs; settings: for Offset Slope Component (0-5) min: 0-5 min after heart rate begins to decline; for Offset Slope Component (5-10) min: 5-10 min after decline begins; for Offset Slope Component (10-30) min: 10-30 min after decline begins; for Change in Heart Rate (peak minus baseline) / Peak Heart Rate: Table II; for Onset Slope: baseline at onset time to peak heart rate; for Offset time: drug delivery stopped until within 20 bpm of baseline; for Offset Slope: drug shut-off to 20 bpm above baseline; for Delay: drug shut-off to start of heart rate decline; for t 1/2 of elevated heart rate decay: exponential fit; for Onset time: start of delivery to start of increase in heart rate; for Time Start Decline: time when elevated heart rate began to decline
[2] = system: elevated heart rate; assay: Additional in vivo dog experiments: dermal clearance enhancer pretreatment then arbutamine TDI (Example C); design: species or system labrador dogs
Protocol: Additional experiments were performed to study the effect of certain compositions on the offset time and dermal clearance in dogs.
In these experiments, the formulation to be tested was applied either topically or by transdermal iontophoresis (TDI) as described below.
Six labrador dogs (20 to 30 kg) were trained to lie quietly on a table. Before each experiment, three ECG electrodes (one lead) were applied on shaved areas of the back (near the front legs) to obtain the heart rate. The outer hind leg area (either right or left) was shaved prior to each experiment, with care taken not to cut or visibly damage the skin. The area was cleaned with soap and water and the skin was then […] using an alcohol swab followed by skin preparation with 3M One-Step-Prep™ tape.
Each vasodilator that was delivered by TDI used a 1.8 cm^2 electrode (Graphic Controls, Buffalo, N.Y.) containing the vasodilator in a gel at the concentrations listed in experimental methods section. In all experiments, an indifferent electrode containing a phosphate-buffered-saline gel was applied to the skin in conjunction with the electrode containing the vasodilator. Each vasodilator tested was applied for 10 minutes using a current of 0.6 mA/cm^2. During this time the heart rate was continuously recorded (at 5 second intervals) with the ESA Research System. The delivery electrodes were then removed, and any excess gel adhering to the skin was gently removed using a tissue.
Each topically applied vasodilator was applied to the skin in a volume of approximately 0.25 ml. The agent was allowed to absorb into the skin, during which time the heart rate was continuously recorded for 10 minutes using the ESA Research System.
To test if heat alone would produce sufficient vasodilation, a 60° C. hot pack was applied to the skin 10 minutes prior to drug delivery, during which time the heat rate was continuously recorded by the ESA System. Once drug delivery electrodes were applied, the heat pack was reheated and placed on top of them for the duration of the study.
The purpose of this treatment was to produce an elevated heart rate response of at least 40 beats-per-minute above baseline lasting for at least 30 minutes.
^1/ The dose (ITCA) was calculated by multiplying the applied current density (mA/cm^2) by the duration of delivery (minutes) and the drug concentration (%) and the area of the electrode (cm^2). […] The units of ITCA are mA.minutes.
The important variables for this analysis are:
1) delay between time when drug administration was stopped and start of decline in heart rate;
2) the time (minutes) to reach successive percent levels (i.e. 10, 20, 30, 40, and 50% decline) from the point of maximum change in heart rate^2.
3) the half-life (minutes) of the heart rate decline obtained from an exponential fit of the offset slope.
A combination of over-the-counter (OTC) and proprietary formulations were selected for comparison. […] Two dogs received each treatment at least one time.
The six dogs are identified in the table as BA, BB, BO, MI, PO and SA, followed by the experimental identification number. These dogs received control (no pretreatment) and five DCE pretreatment regimens.

[3] = Redness/irritation index of topical formulations on human volunteers (Example B); settings: for Redness/irritation index, Mean: 7 subjects
Protocol: In these experiments data were collected from seven human volunteers concerning the effects of topical dermal clearance enhancers. […] Observations were recorded at 10, 20, and 30 minute intervals. The following redness/irritation index was used to categorize vasodilation/irritation:
0=no redness, i.e., erythema;
W=Wheal irritation, i.e., edemic core surrounded by an erythemic ring; and
The presence of vasodilation was determined by degree of redness of the skin. Wheal irritation was signified by the presence of an erythemic ring surrounding an upraised pale center. Whitening was denoted by a pale area with no upraising or redness.

[4] = Table VII, single dog run, listed as 1% Tolazoline

c1ccc(CC2=NCCN2)cc1 [Tolazoline]
Offset Slope Component (0-5) min ([1]; listed as 5): -0.90 beats per minute per minute
Offset Slope Component (0-5) min ([1]; listed as 6): -1.40 beats per minute per minute
Offset Slope Component (5-10) min ([1]; listed as 5): -3.30 beats per minute per minute
Offset Slope Component (5-10) min ([1]; listed as 6): -3.90 beats per minute per minute
Percent decline in heart rate, ranking ([1]; 10-20 minute interval, FIG. 1): greatest percent decline
Offset Slope Component (10-30) min ([1]; listed as 5): -0.70 beats per minute per minute
Offset Slope Component (10-30) min ([1]; listed as 6): -0.58 beats per minute per minute
Delay to onset of heart rate decline, ranking ([1]; FIG. 2): shortest delay
Heart rate decay half-life, ranking ([1]; FIG. 2): relatively short half-lives
Reduction in heart rate offset ([1]; FIGS. 3 and 4): dramatic reduction in heart rate offset
Change in Heart Rate (peak minus baseline) ([1]; listed as 5): 53 bpm
Peak Heart Rate ([1]; listed as 5): 119 bpm
Change in Heart Rate (peak minus baseline) ([1]; listed as 6): 33 bpm
Peak Heart Rate ([1]; listed as 6): 121 bpm
Total time (startup) thru offset plateau: w/in 20 bpm of baseline ([1]; Table IV): 34 min
Total time (startup) thru offset plateau: reached baseline ([1]; Table IV, listed as 5): 60 min
Total time (startup) thru offset plateau: reached baseline ([1]; Table IV, listed as 6): 30 min
Onset Slope ([1]; listed as 5): 4.70 beats per minute per minute
Onset Slope ([1]; listed as 6): 3.50 beats per minute per minute
Offset time ([1]; listed as 5): 34.00 min
Offset time ([1]; listed as 6): 8.00 min
Offset Slope ([1]; listed as 5): -1.00 beats per minute per minute
Offset Slope ([1]; listed as 6): -3.20 beats per minute per minute
Delay ([1]; listed as 5): 2.00 min
Delay ([1]; listed as 6): 4.00 min
t 1/2 of elevated heart rate decay ([1]; Table IV, listed as 5): 14.06 min
t 1/2 of elevated heart rate decay ([1]; Table IV, listed as 6): 6.77 min
Reduction in offset time ([1]; iontophoretic pre-delivery): found effective when pre-delivered iontophoretically; also recorded: significant reduction in offset time
Onset time ([1]; listed as 5): 10.00 min
Onset time ([1]; listed as 6): 7.00 min
Time Start Decline ([1]; listed as 5): 20.00 min
Time Start Decline ([1]; listed as 6): 21.00 min
Dermal clearance enhancement ([1]; topical pretreatment): no measurable dermal clearance enhancement
CHANGE IN HEART RATE, Mean ([2]; Table VII, mean of runs): 80.64 BPM
DELAY TIME, Mean ([2]; Table VII, mean of runs): 2.76 min
HALF-LIFE, Mean ([2]; Table VII, mean of runs): 16.35 min
TIME TO REACH 10% DECLINE IN HEART RATE, Mean ([2]; Table VII, mean of runs): 6.44 min
TIME TO REACH 20% DECLINE IN HEART RATE, Mean ([2]; Table VII, mean of runs): 9.83 min
TIME TO REACH 30% DECLINE IN HEART RATE, Mean ([2]; Table VII, mean of runs): 13.40 min
TIME TO REACH 40% DECLINE IN HEART RATE, Mean ([2]; Table VII, mean of runs): 18.38 min
TIME TO REACH 50% DECLINE IN HEART RATE, Mean ([2]; Table VII, mean of runs): 27.16 min
CHANGE IN HEART RATE [2, 4]: 53.00 BPM and 101.93 BPM and 80.67 BPM and 84.26 BPM and 93.54 BPM and 69.23 BPM and 92.75 BPM and 67.50 BPM and 97.31 BPM and 84.22 BPM and 64.17 BPM and 87.58 BPM and 72.15 BPM
DELAY TIME [2, 4]: 2.00 min and 5.28 min and 0.67 min and 1.33 min and 1.77 min and 5.27 min and 1.81 min and 0.39 min and 0.00 min and 0.22 min and 4.43 min and 8.02 min and 4.65 min
TIME TO REACH 10% DECLINE IN HEART RATE [2, 4]: 7.24 min and 9.14 min and 2.56 min and 9.27 min and 4.71 min and 8.58 min and 4.56 min and 4.31 min and 2.17 min and 4.63 min and 6.46 min and 9.64 min and 10.49 min
TIME TO REACH 20% DECLINE IN HEART RATE [2, 4]: 8.85 min and 12.89 min and 4.46 min and 15.49 min and 7.55 min and 12.60 min and 10.28 min and 12.20 min and 4.12 min and 7.66 min and 8.49 min and 11.25 min and 11.90 min
TIME TO REACH 30% DECLINE IN HEART RATE [2, 4]: 10.45 min and 16.35 min and 6.18 min and 20.96 min and 10.17 min and 19.78 min and 19.70 min and 14.89 min and 7.47 min and 11.55 min and 10.55 min and 12.87 min and 13.30 min
TIME TO REACH 40% DECLINE IN HEART RATE [2, 4]: 12.29 min and 19.40 min and 7.61 min and 26.43 min and 14.58 min and 30.11 min and 28.29 min and 17.58 min and 12.20 min and 26.06 min and 12.63 min and 16.89 min and 14.83 min
TIME TO REACH 50% DECLINE IN HEART RATE [2, 4]: 19.86 min and 22.45 min and 9.04 min and 31.33 min and 21.82 min and 35.27 min and 60.00 min and 20.27 min and 19.92 min and 66.00 min and 14.68 min and 20.44 min and 18.05 min
HALF-LIFE ([2]; heart rate decline, Table VII, single dog run, listed as 1% Tolazoline): 5.75 min and 10.87 min and 20.60 min and 12.81 min and 18.60 min and 18.02 min and 11.30 min
response in screening study ([2]; two dogs per treatment): most pronounced response

COC(=O)c1ccccc1O [Methyl Salicylate, Methyl salicylate]
Redness/irritation index, Mean ([3]; 10 min): 0
Redness/irritation index ([3]; 10 min, subject CV): 0
Redness/irritation index ([3]; 10 min, subject four): 0
Redness/irritation index ([3]; 10 min, subject one): 0
Redness/irritation index ([3]; 10 min, subject three): 0
Redness/irritation index ([3]; 10 min, subject two): 0
Redness/irritation index, Mean ([3]; 20 min): 0
Redness/irritation index ([3]; 20 min, subject CV): 0
Redness/irritation index ([3]; 20 min, subject three): 0
Redness/irritation index ([3]; 20 min, subject two): 0
Redness/irritation index, Mean ([3]; 30 min): 0
Redness/irritation index ([3]; 30 min, subject CV): 0
Redness/irritation index ([3]; 30 min, subject three): 0
Redness/irritation index ([3]; 30 min, subject two): 0
